For assay [1], the system named is CAL-85-1. Put plainly: normalised response (% of control), CellTiter-Glo; higher = more viable cells (100 = DMSO, 0 = benzethonium chloride kill control). To be noted: incubation time: 72 h. In a few lines: (§1)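 After 72 h with compound in 384-well plates, breast cancer cell lines seeded as 20 µl suspension were read for CellTox Green fluorescence at 485/520 nm. CellTiter-Glo luminescence was then read after 10 min at room temperature. Compound was present at 5 concentrations in 10-fold steps over a 10,000-fold range set per compound, and plates were normalised to 0.1 % DMSO (100) and a positive kill control (0). Values are normalised signals, each at a single concentration.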
A general note: In ATP-based viability assays light output follows the ATP content of the culture.

For assay [2], the system named is HDQ-P1. Described as above. To be noted: incubation time: 72 h. In a few lines:
as §1

Assay [3] deals with BT-474. Described as above. Particulars: incubation time: 72 h. In a few lines:
as §1

The subject of assay [4] is MDA-MB-436. Described as above. To be noted: incubation time: 72 h. In a few lines: as §1
The subject of assay [5] is CAL-85-1. To be noted: 72 h. Summed up: (§2)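 Breast cancer cell lines in 20 µl suspension were seeded onto 384-well plates pre-loaded with compound dissolved in 5 µl medium, then incubated 72 h. For viability, 2.5 µl CellTiter-Blue was added for 2 h at 37 °C and fluorescence read at 560/590 nm. Each plate was normalised to vehicle and a positive kill control and checked by Z'-factor. EC50 comes from the fitted percent-inhibition dose-response curve, censored at the highest concentration; rows with zero drug sensitivity score were dropped.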

The subject of assay [6] is MDA-MB-453. Particulars: 72 h. Summed up:
as §2

Assay [7] has as its system HDQ-P1. Particulars: 72 h. In a few lines: as §2
In assay [8] the test system is DU-4475. Particulars: 72 h. Summed up: as §2
The subject of a further assay is SK-BR-3. To be noted: 72 h. Summed up:
(§3)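 In this assay, breast cancer cell lines spent 72 h with compound at 5 concentrations in 10-fold steps over a compound-specific 10,000-fold range. The first readout was cell death by CellTox Green fluorescence, and the second was viability by CellTiter-Glo luminescence, each normalised per plate to 0.1 % DMSO and a positive kill control. EC50 came from the dose-response curves, censored at the top concentration.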

The next assay has as its system CAL-148. To be noted: 72 h. Summed up:
as §3

The subject of assay [9] is HCC1143. To be noted: 72 h. In a few lines: as §3
For assay [10], the system named is Hs578T. Particulars: 72 h. Summed up: as §3
In another assay the test system is BT-549. Particulars: 72 h. Summed up: as §3
The subject of the next assay is CAL-51. To be noted: 72 h. In a few lines:
as §3

For assay [11], the system named is CAL-85-1. To be noted: 72 h. Summed up: as §3
This is another data set of the same source.

A further assay relates to HCC1937. Particulars: 72 h. Summed up:
as §3

The subject of assay [12] is MDA-MB-453. Particulars: 72 h. In a few lines:
as §3
This is another data set of the same source.

For assay [13], the system named is HDQ-P1. Particulars: 72 h. In a few lines:
as §3
This is another data set of the same source.

The subject of another assay is MCF-10A. To be noted: 72 h. Summed up:
as §3

The subject of assay [14] is MDA-MB-231. Particulars: 72 h. In a few lines:
as §3

Assay [15] deals with MFM-223. To be noted: 72 h. Summed up:
as §3

For assay [16], the system named is BT-474. Particulars: 72 h. In a few lines:
as §3

The test system of assay [17] is MDA-MB-436. To be noted: 72 h. Summed up:
as §3

For assay [18], the system named is DU-4475. Particulars: 72 h. Summed up: as §3
This is another data set of the same source.

In assay [19] the test system is HCC1143. Particulars: 72 h. Summed up:
as §2
This is another data set of the same source.

The test system of assay [20] is Hs578T. Particulars: 72 h. Summed up:
as §2
The source holds these as a separate data set.

For another assay, the system named is MDA-MB-468. Particulars: 72 h. In a few lines: as §2
Another assay has as its system HCC1599. Particulars: 72 h. Summed up:
as §2

For assay [21], the system named is MDA-MB-231. To be noted: 72 h. In a few lines: as §2
This is another data set of the same source.

Assay [22] concerns MFM-223. Particulars: 72 h. In a few lines:
as §2
The source holds these as a separate data set.

The test system of assay [23] is BT-474. To be noted: 72 h. Summed up: as §2
This is another data set of the same source.

The subject of assay [24] is CAL-85-1. To be noted: 72 h. The procedure: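 Drug sensitivity and resistance testing (DSRT) of breast cancer cell lines in 384-well plates, 5 concentrations in 10-fold dilutions over a compound-specific 10,000-fold range. After 72 h, cytotoxicity was read by CellTox Green fluorescence and viability by CellTiter-Glo luminescence (multiplexed), normalised to DMSO and benzethonium chloride controls. EC50 is the inflection point of the fitted dose-response curve (bottom asymptote free, so it can be relative for partial curves) and is censored at the highest tested concentration. Rows with DSS 0 (no meaningful response) were excluded.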
The source holds these as a separate data set.

SMILES strings stand for the structures.

For `S=c1[nH]cnc2nc[nH]c12` [Mercaptopurine] (10000 nM), the normalised response in the assay on CAL-85-1 [1] amounted to 79.3%; in the assay on HDQ-P1 [2], 35.9%; in the assay with BT-474 [3], 31.6%; in the assay with MDA-MB-436 [4], 85.8%.

As to `Clc1ccc(C(c2ccccc2Cl)C(Cl)Cl)cc1` (stereo not given) [Mitotane] (10000 nM), the normalised response with CAL-85-1 [1] came out at 97%; with HDQ-P1 [2], 99.8%; with BT-474 [3], 88.2%; in the assay with MDA-MB-436 [4] it was 97.4%.

In the case of `COc1cccc2cc(-c3nc([C@H]4CC[C@H](C(=O)O)CC4)n4ncnc(N)c34)[nH]c12` [OSI-027], the “EC50, CellTiter-Blue viability” value was 1.18 µM in the assay on CAL-85-1 [5]; 0.46 µM in the assay with MDA-MB-453 [6]; 0.255 µM in the assay on HDQ-P1 [7]; 4.63 µM in the assay with DU-4475 [8]; 1.15 µM in the assay with HCC1143 [19]; 1.28 µM in the assay on Hs578T [20]. For the same molecule, the “EC50, CellTiter-Blue viability” value in the assay with MDA-MB-468 worked out at 1.96 µM; in the assay with HCC1599, 1.21 µM; with MDA-MB-231 [21] it was 1.67 µM; with MFM-223 [22], 0.275 µM; with BT-474 [23] it was 0.74 µM. The “EC50, CellTiter-Glo” value with SK-BR-3 is 0.594 µM; in the assay on CAL-148 it was 7.16 µM; in the assay with HCC1143 [9], 1.88 µM; in the assay on Hs578T [10] it was 6.72 µM; in the assay with BT-549, 2.59 µM; with CAL-51, 2.22 µM. Moreover, the “EC50, CellTiter-Glo” value with CAL-85-1 [11] was found to be 3.8 µM; with HCC1937 it was 8.71 µM; in the assay with MDA-MB-453 [12] it was 2.92 µM; in the assay with HDQ-P1 [13], 0.938 µM; in the assay on MCF-10A, 4.81 µM; in the assay with MDA-MB-231 [14], 8.21 µM. For the same molecule, the “EC50, CellTiter-Glo” value in the assay on MFM-223 [15] was found to be 3.17 µM; with BT-474 [16], 2.92 µM; in the assay with MDA-MB-436 [17] it was 8.29 µM; in the assay on DU-4475 [18] it was 1.48 µM. Also, the “EC50, CellTox Green” value in the assay with CAL-85-1 [24] was greater than 10 µM.

In the case of `COc1cccc2cc(-c3nc([C@H]4CC[C@H](C(=O)O)CC4)n4ncnc(N)c34)[nH]c12` [OSI-027] (10000 nM), the normalised response in the assay with CAL-85-1 [1] is 30.1%; with HDQ-P1 [2], 37.5%; with BT-474 [3], 51.8%; in the assay on MDA-MB-436 [4], 45.6%.

With `OC[C@H]1O[C@@H](n2cnc3c2N=CNC[C@H]3O)C[C@@H]1O` [Pentostatin] (10000 nM), the normalised response in the assay with CAL-85-1 [1] was 99.2%; in the assay on HDQ-P1 [2], 98.1%; in the assay on BT-474 [3] it was 88.9%; in the assay on MDA-MB-436 [4], 96.8%.

On to `N#CC[C@H](C1CCCC1)n1cc(-c2ncnc3[nH]ccc23)cn1` [Ruxolitinib], for which the “EC50, CellTiter-Glo” value in the assay on MFM-223 [15] and in the assay with BT-474 [16] was greater than 10 µM each time.

Take `N#CC[C@H](C1CCCC1)n1cc(-c2ncnc3[nH]ccc23)cn1` [Ruxolitinib] (10000 nM): the normalised response with CAL-85-1 [1] was 98.5%; in the assay with HDQ-P1 [2] it was 86.3%; in the assay with BT-474 [3] it was 81.8%; in the assay on MDA-MB-436 [4], 88.4%.

Source of the values: the supplement of paper PMC4862054.
